Several values for one entry are separate records, joined by “and”; a condition that tells them apart may be missing. Equal entries are not always repeated. Where two headings read alike, the source gives them in different places.
Assays:
H9c2 cardiomyoblasts = assay: MTT cytotoxicity assay, H9c2 cells; type: cell-based, rat; conditions: for IC50: MTT, read-out: IC50
Experimental: For cytotoxicity experiments, cancer cells were seeded at a density of 5,000 (MCF-7), 10,000 (HL-60) or 2,000 cells/well (HCT116 and A549) in 96-well plates (TPP) for 24 h/37°C prior to the addition of examined agents. The non-cancerous cells, 3T3 and H9c2 cells, were cultured for 24 h/37°C in 96-well plates at a density of 10,000 cells/well, the medium was then changed to serum- and pyruvate-free DMEM (Sigma-Aldrich) and incubated with the cells for another 24 h/37°C. The cytotoxic effects of Bp4eT and its metabolites were studied at different concentrations after a 72 h/37°C incubation. In order to aid the dissolution of the lipophilic ligands, 0.1% dimethyl sulfoxide (v/v) (DMSO; Sigma-Aldrich) was present in the culture medium of all groups. At this concentration, DMSO had no effect on cellular proliferation or viability.
The viability of cells were determined using an MTT assay (Sigma-Aldrich) according to previously established methods. The optical density of soluble MTT was measured at λ = 570 nm, subtracting the λ = 690 nm background using a Tecan Infinite 200M plate reader (Tecan Group, Männedorf, Switzerland). The viability or proliferation of experimental groups was expressed as a percentage of the untreated controls (100%).
SigmaStat for Windows 3.5 (Systat Software, San Jose, CA, USA) statistical software package was utilized to analyze results. The data are expressed as the mean ± SD of a given number of experiments. Statistical significance was determined using a one-way ANOVA with a Bonferroni post-hoc test or Student’s t-test. The results were considered to be statistically significant when p < 0.05. The IC50 values were calculated using CalcuSyn 2.0 software (Biosoft, Cambridge, UK). Cell cycle analysis was evaluated using MultiCycle AV Software (Phoenix Flow Systems, San Diego, CA, USA).

[1] = MTT cytotoxicity assay, 3T3 cells; type: cell-based, mouse; conditions: mouse, 3T3 mouse embryo fibroblasts, 3T3, 10 000 b/j; for viability at 72 h, 3 nM: koncentrace 3 nM; for viability at 72 h, 10 nM: koncentrace 10 nM; for viability at 72 h, 30 nM: koncentrace 30 nM; for viability at 72 h, 100 nM: koncentrace 100 nM; for viability at 72 h, 300 nM: koncentrace 300 nM; for viability at 72 h, 1000 nM: koncentrace 1000 nM; for viability at 72 h, 3000 nM: koncentrace 3000 nM
Summary of the method: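 3T3 fibroblast viability was measured with an MTT assay, reading optical density at λ = 570 nm with λ = 690 nm background subtracted on a Tecan Infinite 200M. Results were expressed as a percentage of untreated controls (100%) and reported as mean ± SD. IC50 values came from CalcuSyn 2.0 after a 72 h/37°C incubation.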

caspases 3/7 = assay: Caspase activity, luminescent kit, caspases 3/7; type: cell-based, human; conditions: for kaspáza (3) a 7, průměry (means of raw signal): mean of 4 experiments; for kaspáza (3) a 7, raw signal / kaspáza (3) a 7, signal / viabilita: individual experiments by date
Experimental: To assess the effect of the compounds on caspase activity, MCF-7 cells were incubated with 100 nM Bp4eT or its metabolites for 3, 24 or 72 h/37°C in 96-well plates, as described above. The cells were then lysed by adding 100 μL of cold lysis buffer (100 mM HEPES, 10 mM CHAPS, 10 mM D-L-dithiothreitol, pH 7.4) to 100 μL of medium in each well. Lysates were immediately frozen at -80°C. Thawed lysates were used to assess caspase activity using luminescent kits for caspases 3/7, 8 and 9 (Promega, Madison, WI, USA). The luminescence was measured using the Tecan Infinite 200M plate reader. Caspase activity in the experimental groups was corrected according to the cellular viability of each group and expressed as a percentage of activity of the untreated control (100%).

[2] = individual experiments, read-out: MTT viability (0 = 100)
[3] = mean, read-out: MTT viability (0 = 100), průměr

SMILES: CCNC(=S)NN=C(c1ccccc1)c1ccccn1 [Bp4eT, 2-benzoylpyridine 4-ethyl-3-thiosemicarbazone]
- MTT, relative to control (0 = 100) (H9c2 cardiomyoblasts; H9c2, 10 000 b/j, 3 nM, průměr (mean)): 99.21
- MTT, relative to control (0 = 100) (H9c2 cardiomyoblasts; H9c2, 10 000 b/j, 3 nM, single experiment (date)): 102.894 and 97.5415 and 98.1925 and 99.1728 and 98.234
- MTT, relative to control (0 = 100) (H9c2 cardiomyoblasts; H9c2, 10 000 b/j, 10 nM, průměr (mean)): 97.95
- MTT, relative to control (0 = 100) (H9c2 cardiomyoblasts; H9c2, 10 000 b/j, 10 nM, single experiment (date)): 93.4128 and 99.1411 and 98.6466 and 98.7917 and 99.7545
- MTT, relative to control (0 = 100) (H9c2 cardiomyoblasts; H9c2, 10 000 b/j, 30 nM, průměr (mean)): 93.46
- MTT, relative to control (0 = 100) (H9c2 cardiomyoblasts; H9c2, 10 000 b/j, 30 nM, single experiment (date)): 89.8997 and 94.1191 and 90.5168 and 97.6473 and 95.1275
- MTT, relative to control (0 = 100) (H9c2 cardiomyoblasts; H9c2, 10 000 b/j, 100 nM, průměr (mean)): 83.34
- MTT, relative to control (0 = 100) (H9c2 cardiomyoblasts; H9c2, 10 000 b/j, 100 nM, single experiment (date)): 88.1519 and 73.0922 and 83.4003 and 88.2 and 83.8639
- MTT, relative to control (0 = 100) (H9c2 cardiomyoblasts; H9c2, 10 000 b/j, 300 nM, průměr (mean)): 64.46
- MTT, relative to control (0 = 100) (H9c2 cardiomyoblasts; H9c2, 10 000 b/j, 300 nM, single experiment (date)): 78.5818 and 47.7898 and 54.7281 and 65.2971 and 75.8815
- MTT, relative to control (0 = 100) (H9c2 cardiomyoblasts; H9c2, 10 000 b/j, 1000 nM, průměr (mean)): 35.85
- MTT, relative to control (0 = 100) (H9c2 cardiomyoblasts; H9c2, 10 000 b/j, 1000 nM, single experiment (date)): 36.8685 and 33.593 and 34.7888 and 38.1329
- MTT, relative to control (0 = 100) (H9c2 cardiomyoblasts; H9c2, 10 000 b/j, 3000 nM, průměr (mean)): 31.03
- MTT, relative to control (0 = 100) (H9c2 cardiomyoblasts; H9c2, 10 000 b/j, 3000 nM, single experiment (date)): 33.7493 and 30.5962 and 27.1956 and 32.5967
- IC50 (H9c2 cardiomyoblasts; H9c2, 10 000 b/j, single experiment (date)): 360 nM and 438 nM and 587 nM
- IC50 (H9c2 cardiomyoblasts; Rattus norvegicus, H9c2, 72 h, H9c2, 72 h/37°C, mean ± SD, n ≥ 4): 524 ± 157 nM
- IC50 (H9c2 cardiomyoblasts; Rattus norvegicus, H9c2, H9c2, 10 000 b/j, průměr (mean)): 524 nM
- IC50 (H9c2 cardiomyoblasts; Rattus norvegicus, H9c2, H9c2, 10 000 b/j, single experiment (date)): 713 nM
- viability at 72 h, 3 nM [1, 2]: 101%
- viability at 72 h, 3 nM [1, 3]: 102%
- viability at 72 h, 10 nM [1, 2]: 93.7%
- viability at 72 h, 10 nM [1, 3]: 98.6%
- viability at 72 h, 30 nM [1, 2]: 89%
- viability at 72 h, 30 nM [1, 3]: 91.5%
- viability at 72 h, 100 nM [1, 2]: 75.4%
- viability at 72 h, 100 nM [1, 3]: 72.8%
- viability at 72 h, 300 nM [1, 2]: 72.4%
- viability at 72 h, 300 nM [1, 3]: 69.4%
- viability at 72 h, 1000 nM [1, 2]: 49.5%
- viability at 72 h, 1000 nM [1, 3]: 56.6%
- viability at 72 h, 3000 nM [1, 2]: 32.5%
- viability at 72 h, 3000 nM [1, 3]: 40.5%
- Activation of caspases 7, 8 and 9 (caspases 3/7; 100 nM, 3 h, MCF-7, statement covers caspases 7, 8 and 9): did not activate any of the caspases
- Caspase 7 activity, % of the control (caspases 3/7; 100 nM, 24 h, MCF-7, corrected for viability): 203%
- Caspase 7 activity, % of control (caspases 3/7; 100 nM, 72 h, MCF-7, corrected for viability): 318%
- kaspáza (3) a 7, % kontroly (caspases 3/7; 3 hodiny (3 h), % of control): 96.83%
- kaspáza (3) a 7, průměry (means of raw signal) (caspases 3/7; 3 hodiny (3 h)): 1616.38
- kaspáza (3) a 7, raw signal (caspases 3/7; 3 hodiny): 1828 and 1581 and 1679 and 1377.5
- kaspáza (3) a 7, raw signal, průměry (caspases 3/7; 3 hodiny, mean): 1616.38
- kaspáza (3) a 7, % kontroly (caspases 3/7; 3 hodiny, mean, normalised to viability): 101.92 % kontroly
- kaspáza (3) a 7, signal / viabilita (caspases 3/7; 3 hodiny, normalised to viability): 18.975 and 16.4111 and 17.4284 and 14.2987
- kaspáza (3) a 7, signal / viabilita, průměry (caspases 3/7; 3 hodiny, normalised to viability, mean): 16.7783
- kaspáza (3) a 7, % kontroly (caspases 3/7; 24 hodin (24 h), % of control): 107.61%
- kaspáza (3) a 7, průměry (means of raw signal) (caspases 3/7; 24 hodin (24 h)): 2465.5
- kaspáza (3) a 7, raw signal (caspases 3/7; 24 hodin): 2823.5 and 2154.5 and 2683 and 2201
- kaspáza (3) a 7, raw signal, průměry (caspases 3/7; 24 hodin, mean): 2465.5
- kaspáza (3) a 7, % kontroly (caspases 3/7; 24 hodin, mean, normalised to viability): 203.48 % kontroly
- kaspáza (3) a 7, signal / viabilita (caspases 3/7; 24 hodin, normalised to viability): 53.4249 and 40.7664 and 50.7664 and 41.6462
- kaspáza (3) a 7, signal / viabilita, průměry (caspases 3/7; 24 hodin, normalised to viability, mean): 46.651
- kaspáza (3) a 7, % kontroly (caspases 3/7; 72 hodin (72 h), % of control): 86.15%
